From ChEMBL document CHEMBL5724806, “Unraveling interindividual differences and functional consequences of gut microbial metabolism of immunosuppressants” (2024)

What was measured:
Assay type in all cases: ADME
[1] = (§1) The drug is tested on the gut metagenome community of T-03 with ENA study accession number: PRJEB31790 for biotransformation under microaerobic condition. The drug concentrations were measured over 7 timepoints collected between 0 and 12 hours of incubation by liquid-chromatography-coupled mass spectrometry (LC–MS); design: dose 5 uM, timepoint 0, 0.75, 1.5, 3, 6, 9, 12 hours; conditions: 5 µM
[2] = The drug is tested on Actinomyces naeslundi strain: DSM43013 for biotransformation under anaerobic condition. The drug concentrations were measured over 6 timepoints collected between 0 and 12 hours of incubation by liquid-chromatography-coupled mass spectrometry (LC–MS); design: dose 5 uM, timepoint 0, 1.5, 3, 6, 9, 12 hours; conditions: actinomyces naeslundii, 5 µM
[3] = The drug is tested on Escherichia coli strain: DSM27469 for biotransformation under anaerobic condition. The drug concentrations were measured over 6 timepoints collected between 0 and 12 hours of incubation by liquid-chromatography-coupled mass spectrometry (LC–MS); design: dose 5 uM, timepoint 0, 1.5, 3, 6, 9, 12 hours; conditions: 5 µM
[4] = The drug is tested on Roseburia intestinalis strain: DSM14610 for biotransformation under anaerobic condition. The drug concentrations were measured over 6 timepoints collected between 0 and 12 hours of incubation by liquid-chromatography-coupled mass spectrometry (LC–MS); design: dose 5 uM, timepoint 0, 1.5, 3, 6, 9, 12 hours; conditions: 5 µM
[5] = The drug is tested on Streptococcus mitis strain: DSM12643 for biotransformation under anaerobic condition. The drug concentrations were measured over 6 timepoints collected between 0 and 12 hours of incubation by liquid-chromatography-coupled mass spectrometry (LC–MS); design: dose 5 uM, timepoint 0, 1.5, 3, 6, 9, 12 hours; conditions: 5 µM
[6] = as §1, with “A-04” for “T-03”; design: dose 5 uM, timepoint 0, 0.75, 1.5, 3, 6, 9, 12 hours; conditions: 5 µM
[7] = as §1, with “T-01” for “T-03”, “anaerobic” for “microaerobic”; design: dose 5 uM, timepoint 0, 0.75, 1.5, 3, 6, 9, 12 hours; conditions: 5 µM
[8] = The drug is tested on Bacteroides stercoris strain: HM 1036 for biotransformation under anaerobic condition. The drug concentrations were measured over 6 timepoints collected between 0 and 12 hours of incubation by liquid-chromatography-coupled mass spectrometry (LC–MS); design: dose 5 uM, timepoint 0, 1.5, 3, 6, 9, 12 hours; conditions: 5 µM
[9] = as §1, with “A-07” for “T-03”; design: dose 5 uM, timepoint 0, 0.75, 1.5, 3, 6, 9, 12 hours; conditions: 5 µM
[10] = The drug is tested on Gemella morbillorum strain: DSM20572 for biotransformation under microaerobic condition. The drug concentrations were measured over 6 timepoints collected between 0 and 12 hours of incubation by liquid-chromatography-coupled mass spectrometry (LC–MS); design: dose 5 uM, timepoint 0, 1.5, 3, 6, 9, 12 hours; conditions: 5 µM
[11] = The drug is tested on Alloscardovia omnicolens strain: DSM21503 for biotransformation under microaerobic condition. The drug concentrations were measured over 6 timepoints collected between 0 and 12 hours of incubation by liquid-chromatography-coupled mass spectrometry (LC–MS); design: dose 5 uM, timepoint 0, 1.5, 3, 6, 9, 12 hours; conditions: 5 µM
[12] = The drug is tested on Bacteroides vulgatus strain: DSM1447 for biotransformation under anaerobic condition. The drug concentrations were measured over 6 timepoints collected between 0 and 12 hours of incubation by liquid-chromatography-coupled mass spectrometry (LC–MS); design: dose 5 uM, timepoint 0, 1.5, 3, 6, 9, 12 hours; conditions: phocaeicola vulgatus, 5 µM
[13] = as §1, with “P-03” for “T-03”, “anaerobic” for “microaerobic”; design: dose 5 uM, timepoint 0, 0.75, 1.5, 3, 6, 9, 12 hours; conditions: 5 µM
[14] = The drug is tested on Collinsella aerofaciens strain: DSM3979 for biotransformation under anaerobic condition. The drug concentrations were measured over 6 timepoints collected between 0 and 12 hours of incubation by liquid-chromatography-coupled mass spectrometry (LC–MS); design: dose 5 uM, timepoint 0, 1.5, 3, 6, 9, 12 hours; conditions: 5 µM
[15] = The drug is tested on Odoribacter splanchnicus strain: DSM20712 for biotransformation under anaerobic condition. The drug concentrations were measured over 6 timepoints collected between 0 and 12 hours of incubation by liquid-chromatography-coupled mass spectrometry (LC–MS); design: dose 5 uM, timepoint 0, 1.5, 3, 6, 9, 12 hours; conditions: 5 µM
[16] = The drug is tested on Bacteroides thetaiotaomicron strain: DSM2079 for biotransformation under anaerobic condition. The drug concentrations were measured over 6 timepoints collected between 0 and 12 hours of incubation by liquid-chromatography-coupled mass spectrometry (LC–MS); design: dose 5 uM, timepoint 0, 1.5, 3, 6, 9, 12 hours; conditions: 5 µM
[17] = The drug is tested on Clostridium bolteae strain: DSM15670 for biotransformation under anaerobic condition. The drug concentrations were measured over 6 timepoints collected between 0 and 12 hours of incubation by liquid-chromatography-coupled mass spectrometry (LC–MS); design: dose 5 uM, timepoint 0, 1.5, 3, 6, 9, 12 hours; conditions: enterocloster bolteae, 5 µM
[18] = The drug is tested on Bifidobacterium longum strain: DSM20088 for biotransformation under microaerobic condition. The drug concentrations were measured over 6 timepoints collected between 0 and 12 hours of incubation by liquid-chromatography-coupled mass spectrometry (LC–MS); design: dose 5 uM, timepoint 0, 1.5, 3, 6, 9, 12 hours; conditions: 5 µM
[19] = as §1, with “A-08” for “T-03”, “anaerobic” for “microaerobic”; design: dose 5 uM, timepoint 0, 0.75, 1.5, 3, 6, 9, 12 hours; conditions: 5 µM
[20] = as §1, with “P-02” for “T-03”; design: dose 5 uM, timepoint 0, 0.75, 1.5, 3, 6, 9, 12 hours; conditions: 5 µM
[21] = as §1, with “T-04” for “T-03”; design: dose 5 uM, timepoint 0, 0.75, 1.5, 3, 6, 9, 12 hours; conditions: 5 µM
[22] = The drug is tested on Bacteroides ovatus strain: ATCC 8483 for biotransformation under anaerobic condition. The drug concentrations were measured over 6 timepoints collected between 0 and 12 hours of incubation by liquid-chromatography-coupled mass spectrometry (LC–MS); design: dose 5 uM, timepoint 0, 1.5, 3, 6, 9, 12 hours; conditions: 5 µM
[23] = as §1, with “A-02” for “T-03”; design: dose 5 uM, timepoint 0, 0.75, 1.5, 3, 6, 9, 12 hours; conditions: 5 µM
[24] = The drug is tested on Coprococcus comes strain: ATCC27758 for biotransformation under anaerobic condition. The drug concentrations were measured over 6 timepoints collected between 0 and 12 hours of incubation by liquid-chromatography-coupled mass spectrometry (LC–MS); design: dose 5 uM, timepoint 0, 1.5, 3, 6, 9, 12 hours; conditions: 5 µM
[25] = as §1, with “A-03” for “T-03”, “anaerobic” for “microaerobic”; design: dose 5 uM, timepoint 0, 0.75, 1.5, 3, 6, 9, 12 hours; conditions: 5 µM
[26] = The drug is tested on Enterococcus faecalis strain: ATCC29212 for biotransformation under microaerobic condition. The drug concentrations were measured over 6 timepoints collected between 0 and 12 hours of incubation by liquid-chromatography-coupled mass spectrometry (LC–MS); design: dose 5 uM, timepoint 0, 1.5, 3, 6, 9, 12 hours; conditions: 5 µM
[27] = The drug is tested on Bifidobacterium longum strain: DSM20088 for biotransformation under anaerobic condition. The drug concentrations were measured over 6 timepoints collected between 0 and 12 hours of incubation by liquid-chromatography-coupled mass spectrometry (LC–MS); design: dose 5 uM, timepoint 0, 1.5, 3, 6, 9, 12 hours; conditions: 5 µM
[28] = The drug is tested on Ruminococcus gnavus strain: ATCC29149 for biotransformation under anaerobic condition. The drug concentrations were measured over 6 timepoints collected between 0 and 12 hours of incubation by liquid-chromatography-coupled mass spectrometry (LC–MS); design: dose 5 uM, timepoint 0, 1.5, 3, 6, 9, 12 hours; conditions: mediterraneibacter gnavus, 5 µM
[29] = as §1, with “T-01” for “T-03”; design: dose 5 uM, timepoint 0, 0.75, 1.5, 3, 6, 9, 12 hours; conditions: 5 µM
[30] = as §1, with “A-04” for “T-03”, “anaerobic” for “microaerobic”; design: dose 5 uM, timepoint 0, 0.75, 1.5, 3, 6, 9, 12 hours; conditions: 5 µM

For `C[C@H]1C[C@@H]2[C@H]([C@@H](O)C[C@@]3(C)[C@H]2CC[C@]3(O)C(=O)CO)[C@@]2(C)C=CC(=O)C=C12` [METHYLPREDNISOLONE], the “Bacterial Biotransformation” value [1] was “Compound NOT metabolized”, the “Bacterial Biotransformation” value [2] was “Compound NOT metabolized” and the “Bacterial Biotransformation” value [3] was “Compound NOT metabolized”. The “Bacterial Biotransformation” value [4] was “Compound NOT metabolized”, the “Bacterial Biotransformation” value [5] was “Compound NOT metabolized” and the “Bacterial Biotransformation” value [6] was “Compound metabolized”. The “Bacterial Biotransformation” value [7] was “Compound NOT metabolized”, the “Bacterial Biotransformation” value [8] was “Compound NOT metabolized” and the “Bacterial Biotransformation” value [9] was “Compound metabolized”. For the same compound, the “Bacterial Biotransformation” value [10] was “Compound NOT metabolized”, the “Bacterial Biotransformation” value [11] was “Compound NOT metabolized” and the “Bacterial Biotransformation” value [12] was “Compound NOT metabolized”. For the same compound, the “Bacterial Biotransformation” value [13] was “Compound metabolized”, the “Bacterial Biotransformation” value [14] was “Compound NOT metabolized” and the “Bacterial Biotransformation” value [15] was “Compound NOT metabolized”. The “Bacterial Biotransformation” value [16] was “Compound NOT metabolized”, the “Bacterial Biotransformation” value [17] was “Compound NOT metabolized” and the “Bacterial Biotransformation” value [18] was “Compound NOT metabolized”. For the same compound, the “Bacterial Biotransformation” value [19] was “Compound metabolized”, the “Bacterial Biotransformation” value [20] was “Compound metabolized” and the “Bacterial Biotransformation” value [21] was “Compound NOT metabolized”. The “Bacterial Biotransformation” value [22] was “Compound NOT metabolized”, the “Bacterial Biotransformation” value [23] was “Compound metabolized” and the “Bacterial Biotransformation” value [24] was “Compound NOT metabolized”. For the same compound, the “Bacterial Biotransformation” value [25] was “Compound metabolized”, the “Bacterial Biotransformation” value [26] was “Compound NOT metabolized” and the “Bacterial Biotransformation” value [27] was “Compound NOT metabolized”. The “Bacterial Biotransformation” value [28] was “Compound metabolized”, the “Bacterial Biotransformation” value [29] was “Compound metabolized” and the “Bacterial Biotransformation” value [30] was “Compound metabolized”.
